The values that follow come from patent publication US12582645B2, “Chemokine CXCR4 receptor modulators and uses related thereto” (Emory University, priority 2017, dated 2026).

Bounds are passed on as bounds.

In the first assay the target is T1, CXCR4 (Homo sapiens, UniProt P61073).
T1 construct: Human T lymphoblast cells (CCRF-CEM) expressing endogenous CXCR4 receptors; endogenous in cells; host or cells: CCRF-CEM (human T lymphoblast cells)
T1 sequence (P61073 whole entry): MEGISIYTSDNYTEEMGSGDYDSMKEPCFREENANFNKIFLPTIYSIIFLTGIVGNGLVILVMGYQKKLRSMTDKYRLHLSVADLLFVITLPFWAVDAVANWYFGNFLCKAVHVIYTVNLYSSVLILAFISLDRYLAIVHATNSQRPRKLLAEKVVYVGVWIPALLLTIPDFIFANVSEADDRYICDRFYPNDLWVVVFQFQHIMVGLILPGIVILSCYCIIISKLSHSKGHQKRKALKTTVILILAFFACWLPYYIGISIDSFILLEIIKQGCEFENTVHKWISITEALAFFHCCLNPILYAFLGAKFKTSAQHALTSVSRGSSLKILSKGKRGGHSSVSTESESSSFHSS
The assay is described as follows: CXCR4-CEM calcium flux assay, antagonist mode (inhibition of SDF-1α-induced calcium flux). It is filed as cell-based. Conditions: CCRF-CEM cells expressing endogenous CXCR4, stimulated with 4 nM SDF-1α, read-out: CXCR4 Ca^2+ Flux IC50. As to the method:
CXCR4-CEM Calcium Flux Assays
Exemplary compounds of the invention were tested for their ability to induce or inhibit calcium flux in CCRF-CEM cells, a human cell line that endogenously expresses CXCR4. Activation of CXCR4 stimulates G protein signaling which, in CCRF-CEM cells, causes a series of downstream events that leads to the release of intracellular calcium stores, or calcium flux. Calcium ion concentrations can be easily measured using a wide variety of […] calcium indicators and, as a result, calcium flux assays are commonly employed methods for measuring G protein-coupled receptor (GPCR) activity. Because the therapeutic potential of CXCR4 antagonists as anti-cancer agents likely relies on their ability to inhibit CXCR4-mediated G protein signaling, this assay was utilized as a first-pass measure of inhibitor potency.
The cells were then equilibrated to room temperature for 30 minutes before assay. […] For “antagonist mode” assessment, the cells are subsequently incubated for 25 minutes at room temperature. SDF-1α (R&D System Cat #350-NS/CF) was then added at a final concentration of 4 nM to stimulate the cells. Inhibition of SDF-1α-induced calcium flux was monitored by FDSS6000 for 90 seconds.
After correcting for background, EC50 values were determined. […] Inhibition data for the test compound over a range of concentrations was plotted as percentage inhibition of the test compound as compared to an internal control compound.
Background: Calcium assays in cells follow changes in intracellular calcium, usually with a dye or a luminescent sensor.
For `NCC1=C(CN(C[C@H]2Cc3ccccc3CN2)[C@H]2CCCc3cccnc32)CCCC1` [EMU124], the IC50 (in general, the concentration that gives 50% inhibition) stood at 0.227 µM.

On to `NCc1ccc(CN(CC2Cc3ncccc3CN2)[C@H]2CCCc3cccnc32)cc1` (single isomer, unassigned) [EMU194], for which the IC50 amounted to 0.111 µM.

On to `CN(CC1Cc2c(cccc2N2CCNCC2)CN1)[C@H]1CCCc2cccnc21` (single isomer, unassigned) [EMU034 (Stereoisomer 1)], for which the IC50 was 0.00608 µM.

On to `FC1(F)CCC(NC/C=C\CN(C[C@H]2Cc3ccccc3CN2)[C@H]2CCCc3cccnc32)CC1` [EMU143], for which the half-maximal inhibitory concentration (IC50) worked out at 0.098 µM.

Consider `CN(C[C@H]1Cc2c(cccc2N2C[C@H]3C[C@@H]2CN3)CN1)[C@H]1CCCc2cccnc21` [EMU200], for which the IC50 worked out at 0.0207 µM.

As to `CN(C[C@H]1Cc2c(cccc2N2C[C@@H]3CCN(C)[C@@H]3C2)CN1)C1CCCc2cccnc21` (some centres unmarked) [EMU236], the IC50 is 0.0114 µM.

For `CN(C[C@H]1Cc2c(cccc2N2CCN3CCC[C@H]3C2)CN1)[C@H]1CCCc2cccnc21` [EMU160], the half-inhibitory concentration (IC50) came out at 0.00292 µM.

Consider `CN(C[C@H]1Cc2c(cccc2N2CCN(C3CC3)CC2)CN1)[C@H]1CCCc2cccnc21` [EMU196], for which the IC50 worked out at 0.0235 µM.

`CN(C[C@H]1Cc2c(cccc2N2C[C@@H]3C[C@H]2CN3)CN1)C1CCCc2cccnc21` (some centres unmarked) [EMU135]: the IC50 amounted to 0.146 µM.

With `FC1(F)CCC(NC/C=C/CN(C[C@H]2Cc3ccccc3CN2)[C@H]2CCCc3cccnc32)CC1` [EMU154, (E)-N1-(4,4-difluorocyclohexyl)-N4-(((R)-1,2,3,4-tetrahydroisoquinolin-3-yl)methyl)-N4-((S)-5,6,7,8-tetrahydroquinolin-8-yl)but-2-ene-1,4-diamine], the IC50 was 0.0821 µM.

With `C[C@@H]1CN(c2cccc3c2CC(CN(C)[C@H]2CCCc4cccnc42)NC3)C[C@H](C)N1` (single isomer, unassigned) [EMU096 (Stereoisomer 1)], the IC50 came out at 0.061 µM.

For the compound `C/C(CN(C[C@H]1Cc2ccccc2CN1)[C@H]1CCCc2cccnc21)=C(\F)CN` [EMU125], the IC50 came to 0.0799 µM.

As to `Cc1cccnc1CN(CCCCN)C[C@H]1Cc2c(cccc2N2CCNCC2)CN1` [EMU166, (R)—N1-((3-methylpyridin-2-yl)methyl)-N1-((5-(piperazin-1-yl)-1,2,3,4-tetrahydroisoquinolin-3-yl)methyl)butane-1,4-diamine], the IC50 worked out at 0.00988 µM.

Turning to `NCC1CC1CN(C[C@H]1Cc2ccccc2CN1)[C@H]1CCCc2cccnc21` (single isomer, unassigned) [EMU030 (Stereoisomer 1)], the IC50 was found to be 0.00642 µM.

With `NCCCCN(Cc1nccs1)C[C@H]1Cc2ccccc2CN1` [EMU111, (R)—N1-((1,2,3,4-tetrahydroisoquinolin-3-yl)methyl)-N1-(thiazol-2-ylmethyl)butane-1,4-diamine], the IC50 is above 33.3 µM.

As to `c1cnc2c(c1)CCC[C@@H]2N(CC1CCCCC1)CC1Cc2c(cccc2N2CCNCC2)CN1` (single isomer, unassigned) [EMU100 (Stereoisomer 1)], the IC50 worked out at 0.715 µM.

Consider `FC1(F)CCC(NCc2ccc(CN(C[C@H]3Cc4ccccc4CN3)[C@H]3CCCc4cccnc43)cc2)CC1` [EMU182, (S)—N-(4-(((4,4-difluorocyclohexyl)amino)methyl)benzyl)-N—(((R)-1,2,3,4-tetrahydroisoquinolin-3-yl)methyl)-5,6,7,8-tetrahydroquinolin-8-amine], for which the IC50 was found to be 0.143 µM.

Take `C/C(CN)=C(/F)CN(C[C@H]1Cc2ccccc2CN1)[C@H]1CCCc2cccnc21` [EMU141]: the 50% inhibitory concentration (IC50) came out at 0.0437 µM.

`NC(=O)NC/C=C/CN(CC1Cc2ncccc2CN1)[C@H]1CCCc2cccnc21` (single isomer, unassigned) [EMU212 (Stereoisomer 1)]: the IC50 is 0.43 µM.

Consider `NC[C@H]1CC[C@H](CN(C[C@H]2Cc3ccccc3CN2)[C@H]2CCCc3cccnc32)CC1` [EMU121], for which the concentration for half-maximal inhibition (IC50) is 0.343 µM.

For the compound `c1ccc2c(c1)CN[C@@H](CN(Cc1ccc(CNCc3ccncc3)cc1)[C@H]1CCCc3cccnc31)C2` [EMU218, (S)—N-(4-(((pyridin-4-ylmethyl)amino)methyl)benzyl)-N—(((R)-1,2,3,4-tetrahydroisoquinolin-3-yl)methyl)-5,6,7,8-tetrahydroquinolin-8-amine], the IC50 turned out to be 0.134 µM.

For `Cc1cnc2c(c1)CCC[C@@H]2N(C)C[C@H]1Cc2c(cccc2N2CCNCC2)CN1` [EMU230, (S)—N,3-dimethyl-N—(((R)-5-(piperazin-1-yl)-1,2,3,4-tetrahydroisoquinolin-3-yl)methyl)-5,6,7,8-tetrahydroquinolin-8-amine], the IC50 came out at 0.0161 µM.

As to `CN(C[C@H]1Cc2c(cccc2NCCN2CCOCC2)CN1)[C@H]1CCCc2cccnc21` [EMU173, (S)—N-methyl-N—(((R)-5-((2-morpholinoethyl)amino)-1,2,3,4-tetrahydroisoquinolin-3-yl)methyl)-5,6,7,8-tetrahydroquinolin-8-amine], the IC50 amounted to 0.0215 µM.

On to `CN1CCN(c2cccc3c2C[C@H](CN2CCC[C@H]4CCc5cccnc5[C@H]42)NC3)CC1` [EMU232, (4aR,10bS)-1-(((R)-5-(4-methylpiperazin-1-yl)-1,2,3,4-tetrahydroisoquinolin-3-yl)methyl)-1,2,3,4,4a,5,6,10b-octahydro-1,10-phenanthroline], for which the IC50 is 0.0252 µM.

As for `CN(CC1CN(Cc2ccccn2)CCN1)[C@H]1CCCc2cccnc21` (single isomer, unassigned) [EMU023 (Stereoisomer 2)], the IC50 came out at 1 µM.

For `CN(CC1Cc2ncccc2CN1)[C@H]1CCCc2cccnc21` (single isomer, unassigned) [EMU174 (Stereoisomer 2)], the concentration for half-maximal inhibition (IC50) came out at 0.476 µM.

With `CN1CCN(c2cccc3c2C[C@H](CN(C)[C@H]2CCCc4cccnc42)NC3)CC1` [EMU116], the half-maximal inhibitory concentration (IC50) is 0.0296 µM.

For `CN1CCN(c2ccccc2CN2CCNC(CN(C)[C@H]3CCCc4cccnc43)C2)CC1` (stereo partly drawn) [EMU070, (8S)—N-methyl-N-((4-(2 (4-methylpiperazin-1-yl)benzyl)piperazin-2-yl)methyl)-5,6,7,8-tetrahydroquinolin-8-amine], the half-maximal inhibitory concentration (IC50) was determined as 6.27 µM.

With `Cc1ccc(CN(CCCN2CCNCC2)C[C@H]2Cc3ccccc3CN2)nc1` [EMU148, (R)—N-((5-methylpyridin-2-yl)methyl)-3-(piperazin-1-yl)-N-((1,2,3,4-tetrahydroisoquinolin-3-yl)methyl)propan-1-amine], the IC50 was determined as 3.1 µM.

On to `C/C(=C/CN)CN(C[C@H]1Cc2ccccc2CN1)[C@H]1CCCc2cccnc21` [EMU208], for which the IC50 worked out at 0.0282 µM.

For the compound `c1ccc(CNCc2ccc(CN(C[C@H]3Cc4ccccc4CN3)[C@H]3CCCc4cccnc43)cc2)nc1` [EMU220, (S)—N-(4-(((pyridin-2-ylmethyl)amino)methyl)benzyl)-N—(((R)-1,2,3,4-tetrahydroisoquinolin-3-yl)methyl)-5,6,7,8-tetrahydroquinolin-8-amine], the IC50 amounted to 0.286 µM.

Take `CN1C[C@@H]2CN(c3cccc4c3C[C@H](CN(C)C3CCCc5cccnc53)NC4)C[C@@H]2C1` (some centres unmarked) [EMU227]: the IC50 was determined as 0.00956 µM.

Consider `NC(=O)NC/C=C\CN(C[C@H]1Cc2ccccc2CN1)[C@H]1CCCc2cccnc21` [EMU211], for which the IC50 is 0.207 µM.

As to `Cc1cccnc1CN(CCCN1CCNCC1)C[C@H]1Cc2ccccc2CN1` [EMU149, (R)—N-((3-methylpyridin-2-yl)methyl)-3-(piperazin-1-yl)-N-((1,2,3,4-tetrahydroisoquinolin-3-yl)methyl)propan-1-amine], the IC50 stood at 0.0921 µM.

As for `CN(C[C@H]1Cc2c(cccc2N2C[C@H]3CCN(C)[C@H]3C2)CN1)C1CCCc2cccnc21` (some centres unmarked) [EMU235], the IC50 stood at 0.0187 µM.

With `NCCCCN(Cc1cscn1)C[C@H]1Cc2ccccc2CN1` [EMU104, (R)—N1-((1,2,3,4-tetrahydroisoquinolin-3-yl)methyl)-N1-(thiazol-4-ylmethyl)butane-1,4-diamine], the IC50 is around 16.6 µM.

Regarding `CN1CCN(Nc2cccc3c2C[C@H](CN(C)[C@H]2CCCc4cccnc42)NC3)CC1` [EMU229], the IC50 was found to be 0.0474 µM.

`N[C@H]1CC[C@H](CN(C[C@H]2Cc3ccccc3CN2)[C@H]2CCCc3cccnc32)CC1` [EMU074]: the 50% inhibitory concentration (IC50) worked out at 0.284 µM.

For the compound `C/C(CN)=C(\F)CN(CC1Cc2ccccc2CN1)[C@H]1CCCc2cccnc21` (some centres unmarked) [EMU140], the IC50 turned out to be 0.0283 µM.

On to `Cc1nc(CN(CCCCN)C[C@H]2Cc3ccccc3CN2)cs1` [EMU110, (R)—N1-((2-methylthiazol-4-yl)methyl)-N1-((1,2,3,4-tetrahydroisoquinolin-3-yl)methyl)butane-1,4-diamine], for which the IC50 is above 33.3 µM.

Turning to `CN(C[C@H]1Cc2c(cccc2N2CC3CNCC3C2)CN1)C1CCCc2cccnc21` (some centres unmarked) [EMU062], the IC50 amounted to 0.0103 µM.

Take `CN(C[C@H]1Cc2c(cccc2N2CCNC(C)(C)C2)CN1)[C@H]1CCCc2cccnc21` [EMU136]: the IC50 was found to be 0.0339 µM.

Turning to `c1cnc2c(c1)CCC[C@@H]2N(CCCN1CCNCC1)Cc1nc2ccccc2s1` [EMU186, (S)—N-((1H-benzo[d]thiazol-2yl)methyl)-N-(3-(piperazine-1yl)propyl)-5,6,7,8-tetrahydroquinolin-8-amine], the IC50 turned out to be 1.2 µM.

Staying with this assay, now noted: CXCR4 Ca^2+ Flux IC50, CCRF-CEM cells expressing endogenous CXCR4, stimulated with 4 nM SDF-1α.
Take `c1cnc2c(c1)CCC[C@@H]2N(CCCN1CCNCC1)Cc1cc2ccccc2cn1` [EMU168]: the IC50 was determined as 0.0173 µM.
